Experimental data reported in US5358936A, “Anionic furanose derivatives, methods of making and using the same” (Gordon; Paul, priority 1991, dated 1994).
Several values for one entry are separate records, joined by “and”; a condition that tells them apart may be missing. Identical values can stand only once. Entries after “also recorded” stand apart in the source; their conditions may differ.

Key:
[1] = test system: focal submucosal lesions; assay: Ethanol-induced gastric focal lesions (Example 33); format: in vivo, rat
Experimental: At three hours after ethanol administration, this drug continued to suppress ethanol-induced focal lesions (-57 percent).
A suspension of 25 mg/kg sucralfate+25 mg/kg Compound III:Al in combination was given as a pretreatment administration to another group in the same study. The combination produced an unanticipated augmentation of therapeutic effect against ethanol-induced focal submucosal lesions (-90 percent) at three hours post-ethanol administration. The same interactive phenomenon was also observed when Compound III was used, rather than Compound III:Al.

[2] = test system: gastric mucosal ulcers; assay: Healing of established gastric ulcers induced by acetic acid (Example 34); format: in vivo, rat
Description: To evaluate drug effects on peptic ulcer healing, gastric mucosal ulcers were produced in rats, after a two day fast, by a modification of the method of Konturek et al., Am. J. Med., Vol. 86, 6A, 32 (1989). Briefly, to produce a mucosal ulcer, Konturek et al. applied 100 percent acetic acid for twenty seconds to the stomach serosa through a small cylindrical mold, 4.2 mm in diameter. The aim here was to make ulceration more severe than was achieved by the Konturek group so that spontaneous healing would not be as pronounced as they found in the controls, over an experimental period of seven days.
All drugs studied were suspended in 0.25 percent (by weight) aqueous methylcellulose solution as the vehicle or diluent, which also served as the placebo given to the controls. Treatments were given once daily by oral gavage, in one milliliter of vehicle. The treatment groups were: Control; Sucralfate at 200 mg/kg; and Compound III:Al at 200 mg/kg.
At the end of the treatment period, stomachs were removed, ulcer diameters were measured, and determination was made of the presence or absence of perforation.
A second study was carried out in which ulcer evolution was permitted to take place over five additional days, in the absence and presence of treatment with Sucralfate.
A third study was begun one day following the start of study 2, in which ulcer evolution was allowed to take place over five additional days, in the absence and presence of treatment with Compound III:Al.
In another study, after ulcer induction as above, a different dosage protocol was employed at 24 hours to evaluate the interaction of Compound III and orally administered sucralfate on ulcer healing. […] Here, daily drug doses of the following were used: (a) sucralfate at 200 mg/kg, alone and (b) in combination with 80 mg/kg Compound III given by mouth at -45 minutes, and, in a third group, (c) in combination with 10 mg/kg Compound III given IV also at -45 minutes. In this interaction study, drug treatment was continued for three and not five days, as was the case for the above studies, followed by passage of two additional non-treatment days before sacrifice of animals for evaluation of stomach ulcer area and perforation.
Data from all ulcer-healing studies employing a drug dosage of 200 mg/kg and the same ulcerogenesis protocol were pooled as to the frequency of gastric perforation observed on day five, not shown separately, with the day six perforation data shown above.

[3] = Solubility / dissolution in acid, water and 20 percent methanol; format: physicochemical; details: pH 1.2; Compound III:Al 2.5 mg/ml
[4] = test system: focal submucosal lesions; assay: Ethanol-induced gastric focal lesions (Example 33); format: in vivo, rat; details: one hour post-ethanol, 50 mg/kg
[5] = Physicians' Desk Reference (1990); cited from earlier work
[6] = Dissolution and buffering of suspensions, HCl titration (Example 16)
Description: Note that the term "apparent pK" in this context is meant to encompass the maximization of buffering that come both from solid-state dissolution and its titration as solute.

[7] = three hours post-ethanol, 50 mg/kg, combination 25 + 25 mg/kg

sucrose octakis-(hydrogen sulfate) aluminum complex [sucralfate, reference compound]
effect on ethanol-produced gastric pathology, in words ([1]; pretreatment 50 mg/kg one hour before ethanol): inhibited all focal submucosal lesions; also recorded: All large vessel vasodilation provoked by ethanol was also inhibited one hour after ethanol treatment; also recorded: at three hours all therapeutic effects of sucralfate on ethanol-produced gastric pathology were absent
change in focal lesions versus control [1, 7]: +6%
change in focal lesions versus control, study employing Compound III [1, 7]: +44%
Focal Lesions per Stomach, study employing Compound III ([1]; three hours post-ethanol, 50 mg/kg, combination 25 + 25 mg/kg, control 2.25 ± 0.98): 3.25 + 1.01 per Stomach
Focal Lesions per Stomach ([1]; three hours post-ethanol, 50 mg/kg, combination 25 + 25 mg/kg, n = 17, control 4.94 ± 1.41): 5.24 ± 1.49 per Stomach
DRUG EFFECT on mean ulcer score ([2]; Day 6, 200 mg/kg oral): -33%
Established ulcer score, individual animal (area in cm^2, + 2.0 for perforation) ([2]; Day 6, 200 mg/kg oral once daily, * = perforation, 200 mg/kg): 2.96 and 5.75 and 3.0 and 1.0 and 0.96 and 3.5 and 1.5 and 0.1 and 1.05 and 0.4
MEAN SCORE, established ulcers ([2]; Day 6, 200 mg/kg oral, controls 3.03 ± 0.73 (sucralfate study, not significant), 4.12 ± 0.67 (Compound III:Al study, P < 0.001)): 2.02 ± 0.55
DRUG EFFECT on mean ulcer area ([2]; day six, 200 mg/kg oral): -43%
Established ulcer area, MEAN ([2]; day six, 200 mg/kg oral, controls 2.14 ± 0.43 (sucralfate, P < 0.1), 2.32 ± 0.61 (Compound III:Al, P < 0.05)): 1.22 ± 0.31 CM^2
Established ulcer area, MEAN (comparative treatments) ([2]; day six, three days treatment, sucralfate 200 mg/kg alone): 2.11 ± 0.41 CM^2
Perforation As Percent ([2]; pooled, 200 mg/kg, control 50, Compound III:Al P < 0.001 vs control and vs sucralfate): 38%
Perforation Frequency ([2]; pooled, 200 mg/kg, days five and six, control 26/52): 12/32
dissolution of suspension in acid [3]: complete dissolution
change in focal lesions versus control [4]: -100%
Focal Lesions per Stomach ([4]; n = 6, control 4.17 ± 1.58, p<0.05): 0.00 per Stomach
absorption from the gastrointestinal tract [5]: only minimally absorbed
HCl needed to lower pH of suspension to below pH 2.00 ([6]; 50 mg in 20 ml distilled water, initial pH 4.44 (aluminum trihydroxide), 4.91 (sucralfate), 4.23 (Compound III:Al), water alone 0.30): 0.4 meq
buffering action, in words ([6]; HCl titration): only a minor buffering action between pH 1.73 and 1.47
Relative Buffering Power between pH 4.5 and 2.0 ([6]; sucralfate = 1): 1
